Laboratory results reported in paper PMC12136037, “Type II kinase inhibitors that target Parkinson’s disease–associated LRRK2” (Science Advances, 2025).

Columns and labels:
Experiment in all cases: DSF 100 kinase selectivity screen;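 also: compound tested at 20 µM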
Assay type in all cases: binding
[1] = biological target: T1, ~100 representative kinases (Homo sapiens, UniProt P54753); conditions: Protein EPHB3A; average of three replicates
T1 construct: Recombinant protein kinase domains with a concentration of 2 μM
T1 sequence (P54753 34-998): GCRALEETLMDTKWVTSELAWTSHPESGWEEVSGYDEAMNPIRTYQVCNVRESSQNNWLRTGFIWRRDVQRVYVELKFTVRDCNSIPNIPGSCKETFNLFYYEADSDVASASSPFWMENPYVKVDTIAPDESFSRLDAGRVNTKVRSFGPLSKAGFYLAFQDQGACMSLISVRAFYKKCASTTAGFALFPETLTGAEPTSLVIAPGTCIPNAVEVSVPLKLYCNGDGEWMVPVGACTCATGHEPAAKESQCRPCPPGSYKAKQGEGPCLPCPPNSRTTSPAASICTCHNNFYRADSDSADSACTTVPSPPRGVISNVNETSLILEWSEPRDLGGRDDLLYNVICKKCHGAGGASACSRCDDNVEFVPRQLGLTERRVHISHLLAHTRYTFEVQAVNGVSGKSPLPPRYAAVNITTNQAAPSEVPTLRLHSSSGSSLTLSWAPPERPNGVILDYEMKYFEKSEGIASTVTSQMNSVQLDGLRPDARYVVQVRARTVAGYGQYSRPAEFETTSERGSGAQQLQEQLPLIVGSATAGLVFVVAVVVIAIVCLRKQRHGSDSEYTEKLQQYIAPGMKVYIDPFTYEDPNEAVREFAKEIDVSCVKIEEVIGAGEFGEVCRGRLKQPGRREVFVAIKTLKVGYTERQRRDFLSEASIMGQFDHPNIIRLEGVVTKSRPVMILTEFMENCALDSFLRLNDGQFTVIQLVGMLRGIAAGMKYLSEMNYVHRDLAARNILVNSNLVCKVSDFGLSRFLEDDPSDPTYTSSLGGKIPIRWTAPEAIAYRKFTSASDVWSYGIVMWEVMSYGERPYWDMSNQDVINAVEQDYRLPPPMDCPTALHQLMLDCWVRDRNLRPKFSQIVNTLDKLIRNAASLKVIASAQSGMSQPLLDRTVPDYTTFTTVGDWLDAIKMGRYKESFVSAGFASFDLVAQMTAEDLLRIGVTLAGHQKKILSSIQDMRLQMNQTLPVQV
Method: (§1) Recombinant protein kinase domains with a concentration of 2 μM were mixed with a 20 μM compound solution in dimethyl sulfoxide (DMSO), 20 mM Hepes (pH 7.5), and 500 mM NaCl. SYPRO Orange (5000×, Invitrogen) was added as a fluorescence probe (1μl/ml). Subsequently, temperature-dependent protein unfolding profiles were measured using the QuantStudio 5 realtime PCR machine (Thermo Fisher Scientific, Waltham, MA, USA). […] The temperature was raised with a step rate of 3°C/min. […] Differences in melting temperature are given as ΔTm values in degrees Celsius. […]

[2] = biological target: T2, ~100 representative kinases (Homo sapiens, UniProt Q13043); conditions: Protein STK4; DSF; average of three replicates
T2 construct: Recombinant protein kinase domains with a concentration of 2 μM
T2 sequence (Q13043 1-487): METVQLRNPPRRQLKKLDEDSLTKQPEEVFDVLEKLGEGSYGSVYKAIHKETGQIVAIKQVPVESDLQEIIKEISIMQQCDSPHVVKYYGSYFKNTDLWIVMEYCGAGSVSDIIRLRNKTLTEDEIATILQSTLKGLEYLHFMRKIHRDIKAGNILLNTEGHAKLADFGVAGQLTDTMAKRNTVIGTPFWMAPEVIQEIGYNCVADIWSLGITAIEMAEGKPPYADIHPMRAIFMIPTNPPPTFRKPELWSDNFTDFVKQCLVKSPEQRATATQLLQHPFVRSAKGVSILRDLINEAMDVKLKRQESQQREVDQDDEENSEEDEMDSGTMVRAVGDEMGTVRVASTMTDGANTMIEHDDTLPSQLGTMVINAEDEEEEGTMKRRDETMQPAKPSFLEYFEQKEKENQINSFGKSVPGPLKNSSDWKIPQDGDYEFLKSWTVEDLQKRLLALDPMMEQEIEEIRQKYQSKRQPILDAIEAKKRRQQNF
Method: as §1

[3] = biological target: T3, ~100 representative kinases (Homo sapiens, UniProt Q13554); conditions: Protein CAMK2B; average of three replicates
T3 construct: Recombinant protein kinase domains with a concentration of 2 μM
Method: as §1

[4] = biological target: T4, ~100 representative kinases (Homo sapiens, UniProt Q13873); conditions: Protein BMPR2; average of three replicates
T4 construct: Recombinant protein kinase domains with a concentration of 2 μM
T4 sequence (Q13873 27-1038): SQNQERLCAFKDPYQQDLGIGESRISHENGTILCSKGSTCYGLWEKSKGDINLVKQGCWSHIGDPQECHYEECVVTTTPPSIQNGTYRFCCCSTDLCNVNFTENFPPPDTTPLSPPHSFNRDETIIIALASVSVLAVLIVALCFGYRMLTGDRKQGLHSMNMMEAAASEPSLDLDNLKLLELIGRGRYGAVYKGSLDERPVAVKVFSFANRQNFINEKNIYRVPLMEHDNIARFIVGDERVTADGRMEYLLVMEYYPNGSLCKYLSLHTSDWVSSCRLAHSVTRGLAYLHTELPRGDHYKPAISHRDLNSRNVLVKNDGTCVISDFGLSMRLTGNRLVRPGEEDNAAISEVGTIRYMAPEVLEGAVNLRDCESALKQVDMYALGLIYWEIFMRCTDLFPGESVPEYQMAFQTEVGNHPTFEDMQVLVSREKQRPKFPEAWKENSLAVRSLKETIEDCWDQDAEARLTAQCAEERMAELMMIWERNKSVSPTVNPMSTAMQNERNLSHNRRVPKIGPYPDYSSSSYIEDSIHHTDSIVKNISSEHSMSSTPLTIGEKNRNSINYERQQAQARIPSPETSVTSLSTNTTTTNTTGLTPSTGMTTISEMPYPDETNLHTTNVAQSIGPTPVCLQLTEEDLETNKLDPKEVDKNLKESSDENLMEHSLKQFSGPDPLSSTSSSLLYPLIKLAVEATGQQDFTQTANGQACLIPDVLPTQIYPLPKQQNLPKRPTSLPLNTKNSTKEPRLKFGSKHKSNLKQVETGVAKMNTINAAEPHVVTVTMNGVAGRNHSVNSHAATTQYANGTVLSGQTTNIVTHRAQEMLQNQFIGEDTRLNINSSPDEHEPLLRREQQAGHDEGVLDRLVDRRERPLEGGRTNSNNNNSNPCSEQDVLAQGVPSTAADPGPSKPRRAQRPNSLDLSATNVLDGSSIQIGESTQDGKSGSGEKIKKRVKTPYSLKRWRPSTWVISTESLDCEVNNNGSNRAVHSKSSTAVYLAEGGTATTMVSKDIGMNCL
Method: as §1

T3 sequence (Q13554 whole entry, the tested form may be a part): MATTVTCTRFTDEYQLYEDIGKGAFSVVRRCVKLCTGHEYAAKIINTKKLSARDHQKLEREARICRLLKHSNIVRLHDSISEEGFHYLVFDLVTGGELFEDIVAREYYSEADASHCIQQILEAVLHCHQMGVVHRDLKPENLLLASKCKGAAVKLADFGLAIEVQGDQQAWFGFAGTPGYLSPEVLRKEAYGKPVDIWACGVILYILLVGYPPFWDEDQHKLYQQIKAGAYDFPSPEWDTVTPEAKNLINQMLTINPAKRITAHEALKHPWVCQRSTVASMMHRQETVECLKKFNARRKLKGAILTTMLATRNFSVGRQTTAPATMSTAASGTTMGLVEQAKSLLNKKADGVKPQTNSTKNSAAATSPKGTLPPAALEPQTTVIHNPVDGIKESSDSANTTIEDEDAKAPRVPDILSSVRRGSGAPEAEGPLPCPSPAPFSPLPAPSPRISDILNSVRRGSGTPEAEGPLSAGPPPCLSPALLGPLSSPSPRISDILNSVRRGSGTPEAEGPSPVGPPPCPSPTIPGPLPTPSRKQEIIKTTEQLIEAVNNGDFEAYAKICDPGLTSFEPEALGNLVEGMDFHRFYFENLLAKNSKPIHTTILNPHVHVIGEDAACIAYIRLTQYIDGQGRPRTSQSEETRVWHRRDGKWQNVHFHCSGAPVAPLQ

Row | Structure (SMILES) | dTm [1] | dTm [2] | dTm [3] | dTm [4]
1 | CC(C)(C)c1cc(NC(=O)Nc2cccc(-c3c[nH]c4ncnc(N5CCOCC5)c34)c2)n(-c2ccc3ncccc3c2)n1 [Compound 28] | 11.98 K | 8.26 K | 1.84 K | 0.69 K
2 | Cc1ccc(-n2nc(C(C)(C)C)cc2NC(=O)Nc2cccc(-c3c[nH]c4ncnc(N5CCOCC5)c34)c2)cc1 [Compound 29] | -2.20 K | 8.44 K | -0.15 K | 0.97 K
3 | Cc1ccc(-n2nc(C(C)(C)C)cc2NC(=O)Nc2cccc(-c3c[nH]c4nc(Cl)nc(N5CCOCC5)c34)c2)cc1 [Compound 30] | 0.0373 K | 4.23 K | -1.25 K | 0.19 K
4 | CC(=O)N1CCN(c2nc(Cl)nc3[nH]cc(-c4cccc(NC(=O)Nc5cc(C(C)(C)C)nn5-c5ccc(C)cc5)c4)c23)CC1 [Compound 31] | -1.56 K | 4.59 K | -1.59 K | 0.38 K
5 | CCSc1nc(NC)c2c(-c3cccc(NC(=O)Nc4cc(C(C)(C)C)nn4-c4ccc(C)cc4)c3)c[nH]c2n1 [Compound 32] | -3.33 K | 0.80 K | 0.33 K | 0.45 K
6 | COc1cc(C(=O)N2CCOCC2)c(F)cc1Nc1nc(N(C)C)c2c(Cl)c[nH]c2n1 [Compound 36] | -1.35 K | -1.57 K | 2.02 K | 0.63 K
7 | COc1cc(S(C)(=O)=O)ccc1Nc1nc(N(C)C)c2c(Cl)c[nH]c2n1 [Compound 37] | -1.89 K | -0.52 K | -0.66 K | -0.0179 K
8 | COc1cc2c(Oc3ccc(NC(=O)C4(C(=O)Nc5ccc(F)cc5)CC4)cc3F)ccnc2cc1OCCCN1CCOCC1 [Foretinib, reference compound] | 13.52 K | 8.95 K | 0.83 K | 0.59 K
9 | CCNc1nc(Nc2cc(F)c(C(=O)N3CCOCC3)cc2OC)ncc1C(F)(F)F [GNE-7915] | 0.08 K | 0.31 K | 0.10 K | 1.37 K
10 | C[C@@H]1CN(c2cc(-c3n[nH]c4ccc(OC5(C)CC5)cc34)ncn2)C[C@H](C)O1 [MLi2] | 0.06 K | -0.67 K | 1.04 K | 0.0116 K
11 | Cn1cc(-c2c[nH]c3ncnc(N4CCOCC4)c23)cc1C#N [PFE-360] | 0.07 K | 4.12 K | 0.00751 K | 2.89 K
12 | CNC(=O)c1cc(Oc2ccc(NC(=O)Nc3cc(C(C)(C)C)nn3-c3ccc4ncccc4c3)c(F)c2)ccn1 [Rebastinib, reference compound] | -2.84 K | 7.33 K | 0.87 K | -0.70 K
